Consider one molecule from PMC12809495, “Potential 14-3-3 binding sites in sirtuins reveal extended phosphosite-recognition modes” (Acta Crystallographica Section F: Structural Biology …, 2026).

Where a SMILES comes first, the peptide text is derived from it. [ ]: non-standard residue; d: D form. pS = N[C@@H](COP(=O)(O)O)C(=O)O Where only a bound is given, the exact number is not on record here.

One experiment addresses T1, 14-3-3 isoform epsilon (Homo sapiens, UniProt P62258).
T1 construct: His6; made in house; host or cells: Escherichia coli BL21 Rosetta (DE3)
T1 sequence (P62258 1-255): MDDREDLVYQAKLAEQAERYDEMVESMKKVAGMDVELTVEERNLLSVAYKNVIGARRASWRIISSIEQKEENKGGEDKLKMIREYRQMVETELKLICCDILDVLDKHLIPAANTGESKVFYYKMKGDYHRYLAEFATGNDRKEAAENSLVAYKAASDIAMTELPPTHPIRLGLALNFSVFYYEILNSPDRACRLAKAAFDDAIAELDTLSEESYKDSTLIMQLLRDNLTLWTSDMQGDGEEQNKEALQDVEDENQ
The experiment can be described thus: Label-free microscale thermophoresis (MST) binding, 14-3-3 epsilon. The note with it: label-free MST, 0.6 µM 14-3-3 protein, 25 mM MES pH 6.5, 5 mM MgCl2, 5 mM CaCl2, 25°C; Kd from duplicate measurements; read-out: Affinity estimates by MicroScale Thermophoresis, 14-3-3 isoform epsilon (Kd). Here is the method: The binding of phosphorylated sirtuin peptides (Fig. 1 ▸) was analyzed using the change in the intrinsic fluorescence signal of the 14-3-3 proteins measured with label-free microscale thermophoresis using a Nanotemper Monolith NT.LabelFree or NT.115. A typical binding experiment using 0.6 µM 14-3-3 protein was performed in a modified MST buffer consisting of 25 mM MES pH 6.5, 5 mM MgCl2, 5 mM CaCl2. The measurements were performed at 25°C using a LED power of 10–40%. All measurements were performed at least in duplicate, and the results shown are representative measurements individually fitted using GraFit 7 (Erathicus Software, Horley, United Kingdom).
Figure 1 Classification and analysis of sirtuin PSSM results for potential 14-3-3 phosphoserine binding sites. Peptides with a gray background were not analyzed experimentally. Score is the overall PSSM score for the phosphorylation site; rank is the order within the 17 proposed sirtuin binding sites. Conserved residues in the 14-3-3 motifs are marked in green. Residues with restricted (proline) or very flexible (glycine) protein backbone or with a very large side chain (tryptophan) are marked in red. Amino acids with the same or similar hydrophobicity/size are shown in magenta. Kd values from duplicate measurements are colored green for Kd < 100 µM. Fields marked in red indicate no binding or no successful experiment. TEXT PRINTED IN THE PICTURE: Sirt1 S26: Affinity estimates by MicroScale Thermophoresis [μM], 14-3-3 isoform sigma: none | Sirt1 S670: Affinity estimates by MicroScale Thermophoresis [μM], 14-3-3 isoform gamma: aggr.; Affinity estimates by MicroScale Thermophoresis [μM], 14-3-3 isoform epsilon: > 183; Affinity estimates by MicroScale Thermophoresis [μM], 14-3-3 isoform theta: 93; Affinity estimates by MicroScale Thermophoresis [μM], 14-3-3 isoform sigma: 5 | Sirt3 S103: Affinity estimates by MicroScale Thermophoresis [μM], 14-3-3 isoform gamma: aggr.; Affinity estimates by MicroScale Thermophoresis [μM], 14-3-3 isoform epsilon: > 267; Affinity estimates by MicroScale Thermophoresis [μM], 14-3-3 isoform theta: 52; Affinity estimates by MicroScale Thermophoresis [μM], 14-3-3 isoform sigma: 10 | Sirt3 S103wt: Affinity estimates by MicroScale Thermophoresis [μM], 14-3-3 isoform gamma: aggr.; Affinity estimates by MicroScale Thermophoresis [μM], 14-3-3 isoform theta: none; Affinity estimates by MicroScale Thermophoresis [μM], 14-3-3 isoform sigma: none | Sirt3 S105: Affinity estimates by MicroScale Thermophoresis [μM], 14-3-3 isoform gamma: aggr.; Affinity estimates by MicroScale Thermophoresis [μM], 14-3-3 isoform epsilon: > 215; Affinity estimates by MicroScale Thermophoresis [μM], 14-3-3 isoform theta: 60; Affinity estimates by MicroScale Thermophoresis [μM], 14-3-3 isoform sigma: none | Sirt5 S168: Affinity estimates by MicroScale Thermophoresis [μM], 14-3-3 isoform epsilon: aggr.; Affinity estimates by MicroScale Thermophoresis [μM], 14-3-3 isoform theta: aggr.; Affinity estimates by MicroScale Thermophoresis [μM], 14-3-3 isoform sigma: > 329 | Sirt6 T337: Affinity estimates by MicroScale Thermophoresis [μM], 14-3-3 isoform epsilon: > 420; Affinity estimates by MicroScale Thermophoresis [μM], 14-3-3 isoform sigma: 12 | Sirt6 S338: Affinity estimates by MicroScale Thermophoresis [μM], 14-3-3 isoform epsilon: 19; Affinity estimates by MicroScale Thermophoresis [μM], 14-3-3 isoform sigma: 24 | Sirt7 S136: Affinity estimates by MicroScale Thermophoresis [μM], 14-3-3 isoform epsilon: none; Affinity estimates by MicroScale Thermophoresis [μM], 14-3-3 isoform theta: 30; Affinity estimates by MicroScale Thermophoresis [μM], 14-3-3 isoform sigma: 49

The next experiment concerns the target T2, 14-3-3σ-ΔC (Homo sapiens, UniProt P31947).
T2 construct: His6; made in house; host or cells: Escherichia coli BL21 Rosetta (DE3)
T2 sequence (P31947 1-231 limits assumed): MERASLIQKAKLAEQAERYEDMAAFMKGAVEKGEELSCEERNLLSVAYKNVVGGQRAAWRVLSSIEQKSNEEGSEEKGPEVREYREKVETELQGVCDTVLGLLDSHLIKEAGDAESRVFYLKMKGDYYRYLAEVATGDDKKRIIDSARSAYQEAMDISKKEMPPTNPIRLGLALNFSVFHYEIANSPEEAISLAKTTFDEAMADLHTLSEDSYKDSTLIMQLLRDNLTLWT
The experiment can be described thus: Isothermal titration calorimetry (ITC). The experiment is classed as binding. Particulars: Fig. 3c; nanoITC, 150 µM 14-3-3σ-ΔC in cell, fourfold-concentrated peptide, 2 µl injections, 25°C, one-site fit; duplicate, error between fits; read-out: apparent Kd, ITC. Here is the method:
Peptide ligands were freshly prepared in the exact same buffer as was used for the gel-filtration run. Samples were degassed and temperature-equilibrated using a degassing station (TA Instruments). A volume of 250 µl of 14-3-3σ-ΔC protein sample at a concentration of 150 µM was transferred into the sample cell of a nanoITC (TA Instruments) and 50 µl of a fourfold-concentrated phosphorylated peptide was loaded into the injection needle. Multiple injection measurements were carried out at 25°C with a 300 rev min^−1 stirring rate and 300 s spacing between each 2 µl injection. The heat quantity post-injection was determined by integration of the measured peaks. The Sirt1^pS670 peptide behaved best and was measured in duplicate. Subtraction of heat of dilution measurements, peak integration and one-site binding fits were performed with NanoAnalyze (TA Instruments). The reported errors are the errors between fits of the measured duplicates.
Figure 3 Affinity measurements of Sirt1^pS670 and different Sirt3 peptides for 14-3-3σ-ΔC protein using MST and ITC experiments. […] (b) MST experiments of titrations of 14-3-3σ-ΔC with Sirt3^pS105 (squares) or Sirt3^pS103 (two independent runs, filled triangles and triangles) endecamer peptides and, for comparison, with nonphosphoylated Sirt3^S103 peptide (circles).
For orientation: In ITC the heat of successive injections is recorded.

For the molecule `CC(C)C[C@H](NC(=O)[C@@H](N)C(C)C)C(=O)N[C@@H](CO)C(=O)N[C@@H](CO)C(=O)N[C@@H](CO)C(=O)N[C@@H](COP(=O)(O)O)C(=O)N[C@@H](CS)C(=O)NCC(=O)N[C@@H](CO)C(=O)N[C@@H](CC(N)=O)C(=O)N[C@@H](CO)C(=O)O` [Sirt1^pS670] (H-VLSSS[pS]CGSNS-OH), the Kd was more than 183 µM on 14-3-3 isoform epsilon and 5 ± 4.2 µM on 14-3-3σ-ΔC.
